Test results published in the NIST ThermoML archive (doi:10.1016/j.jct.2005.06.011).

Tests used:
[1] = refractive index (Na D-line) (dimensionless); xn = mol fraction of the nth substance listed; settings: 101 kPa, Liquid
[2] = xn = mol fraction of the nth substance listed; settings: 101 kPa, Liquid; for speed of sound: Linear variable-path acoustic interferometer

CC1CCCCC1 [methylcyclohexane] + CC(C)O
Settings	mass density, 298.15 K [kg/m3]	mass density, 303.15 K [kg/m3]	mass density, 308.15 K [kg/m3]	refractive index, 298.15 K	refractive index, 303.15 K	refractive index, 308.15 K	speed of sound, 298.15 K [m/s]	viscosity, 298.15 K [mPa·s]	viscosity, 303.15 K [mPa·s]	viscosity, 308.15 K [mPa·s]
[1], x1 = 0.1001	–	–	–	1.3822	1.3798	1.3775	–	–	–	–
[1], x1 = 0.2033	–	–	–	1.3879	1.3854	1.3829	–	–	–	–
[1], x1 = 0.3065	–	–	–	1.3936	1.3909	1.3883	–	–	–	–
[1], x1 = 0.4049	–	–	–	1.3983	1.3956	1.3928	–	–	–	–
[1], x1 = 0.5034	–	–	–	1.4029	1.4001	1.3973	–	–	–	–
[1], x1 = 0.6022	–	–	–	1.4068	1.404	1.4013	–	–	–	–
[1], x1 = 0.7009	–	–	–	1.4106	1.408	1.4053	–	–	–	–
[1], x1 = 0.8021	–	–	–	1.4145	1.4118	1.4092	–	–	–	–
[1], x1 = 0.9032	–	–	–	1.4184	1.4158	1.413	–	–	–	–
[1], x1 = 1	–	–	–	1.4217	1.4192	1.4163	–	–	–	–
[2], x1 = 0.1001	777.28	772.86	768.43	–	–	–	1151	1.634	1.441	1.248
[2], x1 = 0.2033	774.39	769.88	765.38	–	–	–	1159	1.35	1.197	1.044
[2], x1 = 0.3065	771.5	766.95	762.32	–	–	–	1166	1.117	1.004	0.8905
[2], x1 = 0.4049	769.55	764.95	760.33	–	–	–	1173	0.9645	0.8716	0.7785
[2], x1 = 0.5034	767.6	763.01	758.34	–	–	–	1181	0.8434	0.7708	0.698
[2], x1 = 0.6022	766.22	761.62	757	–	–	–	1188	0.7815	0.7193	0.6573
[2], x1 = 0.7009	765.17	760.61	756	–	–	–	1195	0.7197	0.6681	0.6167
[2], x1 = 0.8021	764.75	760.25	755.69	–	–	–	1203	0.703	0.6546	0.6061
[2], x1 = 0.9032	764.43	759.88	755.37	–	–	–	1210	0.6864	0.641	0.5955
[2], x1 = 1	764.99	760.66	756.3	–	–	–	1217	0.6757	0.631	0.5902
